In brackets after ≈: the same amount, converted by molar mass.

The test system of series [1] is Typhlodromus pyri. Nature of the series: LR50; higher = less toxic. The following applies: not reported; mortality.
The subject of another series is Bibionidae. To be noted: chronic/long-term; duration: 28 days; development.
Another series has as its system Apis mellifera. The following applies: acute; oral; unspecified; mortality.
The subject of a further series is Anas platyrhynchos. The following applies: oral, mortality.
Another series relates to Tagia sp. The following applies: acute, duration: 14 days.
The subject of a further series is Folsomia candida. The following applies: chronic/long-term; mortality.
The subject of series [2] is Typhlodromus pyri. To be noted: not reported; mortality.
Another series deals with Daphnia magna. To be noted: chronic/long-term; duration: 21 days; reproduction.

The compound `CC1(C)[C@H](C(=O)O[C@H](C#N)c2cccc(Oc3ccccc3)c2)[C@@H]1/C=C\C(=O)OC(C(F)(F)F)C(F)(F)F` [Acrinathrin] had an LR50 in the series on Typhlodromus pyri [1] of 0.006 g/ha. In addition, the LD50 is greater than 5000 mg/kg-day in the series with Rattus norvegicus (acute, oral, mortality); greater than 2250 mg/kg-day in the series with Colinus virginianus (acute, oral, mortality); 0.077 µg/piece in the series on Apis mellifera; greater than 2000 mg/kg-day in the series on Anas platyrhynchos (acute, unspecified). For the same compound, the NOAEL in the series on Rattus norvegicus (acute, oral, neurology) amounted to 1 mg/kg-day; in the series on Rattus norvegicus (reproduction developmental, no effects), 9.4 mg/kg-day. Also, the NOEC with Colinus virginianus (reproduction developmental, reproduction) is 19.9 mg/kg-day; in the series on Colinus virginianus (short-term, oral, diet, mortality), 325 mg/kg-day; with Bibionidae, 3.1e-05 mg/L; with Anas platyrhynchos (short-term, feed), 173 mg/kg-day; in the series with Tagia sp. (biomass), 1.6 mg/kg; in the series with Pimephales promelas (chronic/long-term, duration: 28 days), 1.1e-05 mg/L. The results for the NOEC with Folsomia candida, in the series with Typhlodromus pyri [2] and with Daphnia magna were less than 1 mg/kg, 0.00068 g/ha and 3.2e-06 mg/L, respectively. Besides, the LC50 in the series with Tagia sp. (mortality) is greater than 1000 mg/kg; with Pimephales promelas (acute, duration: 96 hours, mortality), 1.7 ng/mL (≈ 3.14 nM).

Usually NOAEL stands for the highest dose or exposure tested at which no adverse effect was seen.

These data come from EPA's ToxValDB 9.5 (doi:10.2903/j.efsa.2013.3469).
